No end group written: not given here. C16 = N-terminal C16 lipid
Assays:
Type in all cases: cell-based
[1] = test system: human stromal progenitor cells; assay: Human stromal progenitor cell proliferation (Alamar Blue), lipopeptides as media supplement
Procedure: (§1) Cell proliferation can be evaluated via Alamar Blue assays, with cell number extrapolated from standard calibration curves using known number of cells for each experiment. Cells are incubated at 37° C. with resazurin reagent at 50 μM (Sigma Aldrich), prepared in 1:10 dilution using fresh culture medium, for […], after which 100 μl of culture supernatants (in triplicate) are sampled for fluorescence emission analysis at 590 nm using either a Fluoroskan Ascent fluorescent spectrophotometer or a Varioskan™ Lux (both from Thermo Scientific). The incubation time differ depending on the experiment and on the cell type. • 1.4 Collagen Deposit Assay
(§2) The effect of the different nanostructure on biocompatibility and bioactivity was investigated next. For this study, the lipopeptides were used as a media supplement, rather than coating. The bioactivity of the lipopeptides has been evaluated for three different cell types, namely human stromal progenitor cells, human adipose-derived mesenchymal stem cells (hASCs) and immortalized mouse myoblast cell line (C2C12). • 2.2.1 Effect on Human Stromal Progenitor Cells
(§3) The inventors hypothesised that the effect exerted by the same lipopeptide molecule can be different depending on the solvent in which the self-assembly is initiated. Lumican, Matrixyl and RGDS lipopeptides were investigated as supplements to culture media using stock solutions which were previously self-assembled either in water or in medium. Specifically, cells were cultured for 7 days and proliferation was assessed at day 3 and 7, whereas collagen deposition was analysed at day 7.

[2] = test system: human stromal progenitor cells; assay: Collagen deposited by human stromal progenitor cells (Sirius Red assay); conditions: for amount of collagen deposited, higher compared to PA self-assembled in medium: self-assembled in water
Procedure: (§4) The amount of collagen deposited by the cells is investigated using the Sirius Red assay (Jimenez et al., 1985). In specific, cells are fixed in 70% ice-cold ethanol and transferred to −80° C. for at least 10 min to ensure the complete fixation of the material. Subsequently, the ethanol solution is removed and each well was gently washed with distilled water. Cells are treated with Sirius-red/picric acid solution (Sigma Aldrich) and incubated overnight at 4° C. with gentle agitation. The following day, any unbound dye is removed and cells were gently rinsed with distilled water. Cells are then treated with 500 μl of 1M NaOH (Fisher Scientific) at room temperature for 10 min under agitation to disperse the solution and 100 μL aliquots of each sample were then transferred in triplicate to a 96 well plate. The total collagen is calculated by comparing the absorbance of the resulting samples at 490 nm, read using either a Multiskan Ascent™ or a Varioskan™ Lux (both from Thermo Fisher Scientific), to that of known standard concentrations of collagen. Each tested condition is performed in triplicate. • 1.5 Atomic Force Microscopy (AFM)
as §2, §3

[3] = test system: human adipose-derived mesenchymal stem cells (hASCs); assay: hASC proliferation (Alamar Blue); conditions: 50 μM; day 3 and 7; not significant
Procedure: as §1
The hASCs were also cultured with RGDS lipopeptide previously solubilised above its c.a.c. in water and then diluted in SFM at the final concentration of 50 μM (FIG. 4). This was to understand if the different self-assembled structures affected hASCs behaviour as found for human stromal progenitor cell.
(§5) Moreover, hASCs were also cultured with Lumican or Matrixyl lipopeptides previously solubilised above their c.a.c. in water and then diluted in SFM at the final concentration of 50 μM (FIG. 5).

[4] = test system: human adipose-derived mesenchymal stem cells (hASCs); assay: Collagen deposited by hASCs (Sirius Red assay); conditions: 7 days in culture, not significant
Procedure: as §4, §5

[5] = test system: immortalized mouse myoblast cell line (C2C12); assay: C2C12 proliferation (Alamar Blue); conditions: solubilised in medium; 25 and 50 μM; since day 3
Procedure: as §1
C2C12 were cultured up to 7 days in serum-free medium (SFM) supplemented either with Lumican or Matrixyl or RGDS lipopeptides. Each lipopeptide stock was prepared above its c.a.c. either in serum-free medium (SFM) or in water (H2O). C2C12 proliferation was evaluated using Alamar Blue assay at day 3 and 7. The amount of deposited collagen was quantified using the Sirius Red assay at day 7.

[6] = test system: immortalized mouse myoblast cell line (C2C12); assay: Collagen deposited by C2C12 (Sirius Red assay); conditions: 25 and 50 μM; day 7
Procedure: as §4, with “Each tested condition is performed in triplicate. • 1.5 Atomic Force Microscopy (AFM)” left out
C2C12 were cultured up to 7 days in serum-free medium (SFM) supplemented either with Lumican or Matrixyl or RGDS lipopeptides. […] C2C12 proliferation was evaluated using Alamar Blue assay at day 3 and 7. The amount of deposited collagen was quantified using the Sirius Red assay at day 7.

Row | Substance | cell viability compared to the control ([1]; self-assembled in SFM, day 7, both conditions) | amount of deposited collagen compared to the control ([2]; self-assembled in SFM, day 7) | amount of deposited collagen, higher compared to lipopeptide self-assembled in water ([2]; self-assembled in SFM, day 7) | cell proliferation when solubilised in medium rather than water [3] | collagen deposited by hASCs ([4]; solubilised in SFM) | cell proliferation [5] | collagen deposited when solubilised in SFM rather than water [6] | cell proliferation compared to non-supplemented SFM ([1]; self-assembled in medium, 12 and 25 μM) | cell proliferation compared to non-supplemented serum free medium (SFM) ([1]; self-assembled in water, supplemented at 25 μM and 12 μM, day 3 and 7) | collagen deposition compared to the control (SFM) ([2]; independently of the solvent (water or medium) of self-assembly, 7 days) | amount of collagen deposited, higher compared to PA self-assembled in medium ([2]; 12 μM, 7 days) | amount of collagen deposited, higher compared to PA self-assembled in medium ([2]; 25 μM, 7 days) | collagen deposited by hASCs ([4]; solubilised in water)
1 | C16-KTTKS [Matrixyl lipopeptide] | dramatically decreased cell viability | significantly increased the amount of deposited collagen | 55% | slightly increase cell proliferation | slightly increased the collagen deposited | significantly increased | significantly increased |  |  |  |  |  | 
2 | C16-YEALRVANEVTLN [Lumican lipopeptide] |  |  |  | slightly increase cell proliferation |  | significantly increased cell proliferation | significantly increased | slightly increased cell proliferation only up to day 3 | significantly increased cell proliferation | significantly increased collagen deposition | 15% | ≈ 75% | slightly increased the collagen deposited
